Test results from patent publication US20230048888A1, “USE OF TRIAZOLOTRIAZINE DERIVATIVE IN TREATMENT OF DISEASES” (ZHEJIANG VIMGREEN PHARMACEUTICALS, LTD., priority 2019, published 2023).

Legend:
[1] = target: T1, adenosine receptors A2A (Homo sapiens, UniProt P29274); assay: TR-FRET-based cAMP accumulation assay in hADORA2A-HEK293 cells; type: cell-based; details: NECA at EC80, hADORA2A-HEK293, read-out: A2AR activity (IC50)
T1 construct: expressed in transfected cells; host or cells: HEK293 (hADORA2A-HEK293)
Procedure: The inhibitory effects of the test compounds on the adenosine receptors A2A were evaluated by TR-FRET-based cAMP accumulation assay. The method included, in HEK293 cells (hADORA2A-HEK293) expressing A2AR, the production of cAMP stimulated by NECA and the inhibitory effect of A2A receptor antagonists on cAMP. All cells were cultured in a complete medium at 37° C. in the presence of 5% CO2. After being digested with trypsin, the cells were collected by centrifugation at 200 g for 5 minutes. The cells were resuspended in a fresh complete medium, and then the cell viability was counted by a trypan blue exclusion method. […] The cells were diluted with Hank's buffer solution containing HEPES (5 mM), BSA stabilizer (0.1%) and Rolipram (10 μM), then added to a 384-well white non-transparent plate (cells/well, 10 μl/well), and incubated with the test compound at an appropriate concentration (11 concentrations) for 20 minutes at room temperature. Then, the A2A receptor agonist NECA (final concentration=EC80, which was determined in the same experiment performed earlier) was added to the sample, and the sample was incubated again at 37° C. for 30 minutes.
An inhibition rate (%) was calculated according to the following formula, and an IC50 value was calculated from a concentration-inhibition (%) curve after log conversion.
A curve corresponding to the dose was fitted by using XLfit software and the IC50 was determined.

[2] = Pharmacokinetics of test compounds in SD rats (15.2; IV and PO, mixed administration); type: in vivo; details: male, Sprague-Dawley, rat, plasma; SD rats, PO, 2 mg/kg, mixed administration (6 compounds per group)
Procedure: Administration dose: the compounds in this group were all administered in a mixed way, with 6 compounds in each group for mixed PO administration.
Blood was collected based on the blood collection points in the test protocol. 50 μL of plasma sample was added with acetonitrile (containing 5 ng/mL Verapamil) being 3 folds of the volume thereof; the resulting mixture was vortexed for 30 s, and then centrifuged for 15 min at 15,000 rpm at 4° C.; and 10μ L of supernatant was taken for LC-MS/MS analysis.
For each compound, 3 male SD rats weighing 200-220 g were fasted for one night before dosage, but had access to water.
Orally intragastric administration: before intragastric administration and at 0.083 h, 0.25 h, 0.5 h, 1 h, 2 h, 4 h, 8 h and 24 h after administration (for Compounds 40, 27, 40 and 47), or at 0.25 h, 0.5 h, 1 h, 4 h, 6 h and 8 h after administration (for Compounds 44 and 48), orbital blood was collected and put in a test tube that was treated with heparin sodium, and after centrifugation, the supernatant plasma was collected for LC-MS/MS analysis.
The plasma samples were processed according to the method for “sample treatment” and then analyzed by LC-MS/MS, accompanied with the standard curve and quality control samples. At a time point when the upper limit of quantification was exceeded, the samples were diluted 10 or 100 folds for analysis. All measured data were collected and processed by Analyst 1.6.3 software, and the data were calculated and processed with Microsoft Excel. With DAS 3.2.8 software, the pharmacokinetic parameters were calculated by the statistical moment method. The pharmacokinetic parameters mainly include Tmax, t1/2, Cmax, AUC(0-t), etc.

[3] = Pharmacokinetics of Compounds 27, 16, 14 and 22 in SD rats; type: in vivo; details: for AUC(0-t) / Cmax / half-life / clearance: Sprague-Dawley, rat, in vivo; for clearance: read-out: Cl—pred (converted)
From the text: (§1) WinNonlin® 6.4 was used as the calculation software for PK parameters.

[4] = Pharmacokinetics of Compounds 27, 40, 22 and 41 in ICR mice in different modes of administration; type: in vivo; details: for AUC(0-t) / Cmax / half-life: ICR
From the text: as §1

T1 sequence (P29274 whole entry): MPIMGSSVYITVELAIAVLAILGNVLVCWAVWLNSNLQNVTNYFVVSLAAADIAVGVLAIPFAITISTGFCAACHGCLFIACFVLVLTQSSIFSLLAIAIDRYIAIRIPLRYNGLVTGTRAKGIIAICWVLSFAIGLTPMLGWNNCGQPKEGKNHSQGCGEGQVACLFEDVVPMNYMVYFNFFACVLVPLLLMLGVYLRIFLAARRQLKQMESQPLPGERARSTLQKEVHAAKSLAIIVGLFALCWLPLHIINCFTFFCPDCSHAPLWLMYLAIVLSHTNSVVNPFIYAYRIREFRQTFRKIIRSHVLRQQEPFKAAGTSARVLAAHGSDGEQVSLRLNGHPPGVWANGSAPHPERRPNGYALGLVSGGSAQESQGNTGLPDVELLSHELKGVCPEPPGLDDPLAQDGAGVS

Row | SMILES | IC50 [1] | AUC(0-t) [2] | other results
1 | CC1(C(=O)Nc2ccc(CCNc3nc(N)n4nc(-c5ccco5)nc4n3)cc2)CCOCC1 [Compound 6, N-(4-(2-((7-amino-2-(furan-2-yl)-[1,2,4]triazolo[1,5-a][1,3,5]triazin-5-yl)amino)ethyl)phenyl)-4-methyltetrahydro-2H-pyran-4-carboxamide] | 9.24 nM | – | –
2 | Nc1nc(NCCc2ccc(-c3nnn(CC(F)(F)F)n3)cc2)nc2nc(-c3ccco3)nn12 [Compound 46, N5-(4-(2-(2,2,2-trifluoroethyl)-2H-tetrazol-5-yl)phenethyl)-2-(furan-2-yl)-[1,2,4]triazolo[1,5-a][1,3,5]triazine-5,7-diamine] | – | 739 ng·h/mL | –
3 | Nc1nc(NCCc2ccc(-c3ccccn3)cc2)nc2nc(-c3ccco3)nn12 [Compound 48, 2-(furan-2-yl)-N5-(4-(pyridin-2-yl)phenethyl)-[1,2,4]triazolo[1,5-a][1,3,5]triazine-5,7-diamine] | – | 597 ng·h/mL | –
4 | COCCOCCNc1ccc(CCNc2nc(N)n3nc(-c4ccco4)nc3n2)cc1 [Compound 28, 2-(furan-2-yl)-N5-(4-((2-(2-methoxyethoxy)ethyl)amino)phenethyl)-[1,2,4]triazolo[1,5-a][1,3,5]triazine-5,7-diamine] | 6.77 nM | 757 ng·h/mL | –
5 | N#CCn1nnc(-c2ccc(CCNc3nc(N)n4nc(-c5ccco5)nc4n3)cc2)n1 [Compound 44, 2-(5-(4-(2-(7-amino-2-(furan-2-yl)-[1,2,4]triazolo[1,5-a][1,3,5]triazine-5-ylamino)ethyl)-phenyl)-2H-tetrazol-2-yl)acetonitrile] | – | 341 ng·h/mL | –
6 | CC(C)n1nnc(-c2ccc(CCNc3nc(N)n4nc(-c5ccco5)nc4n3)cc2)n1 [Compound 42, N5-(4-(2-isopropyl-2H-tetrazol-5-yl)phenethyl)-2-(furan-2-yl)-[1,2,4]triazolo[1,5-a][1,3,5]triazine-5,7-diamine] | 9.08 nM | 818 ng·h/mL | –
7 | Nc1nc(NCCc2ccc(NC3CCOCC3)cc2)nc2nc(-c3ccco3)nn12 [Compound 18, 2-(furan-2-yl)-N5-(4-((tetrahydro-2H-pyran-4-yl)amino)phenethyl)-[1,2,4]triazolo[1,5-a][1,3,5]triazine-5,7-diamine] | 3.83 nM | 441 ng·h/mL | –
8 | CCOCCNc1ccc(CCNc2nc(N)n3nc(-c4ccco4)nc3n2)cc1 [Compound 30, N5-(4-((2-ethoxyethyl)amino)phenethyl)-2-(furan-2-yl)-[1,2,4]triazolo[1,5-a][1,3,5]triazine-5,7-diamine] | 3.52 nM | – | –
9 | CCCn1nnc(-c2ccc(CCNc3nc(N)n4nc(-c5ccco5)nc4n3)cc2)n1 [Compound 43, N5-(4-(2-propyl-2H-tetrazol-5-yl)phenethyl)-2-(furan-2-yl)-[1,2,4]triazolo[1,5-a][1,3,5]triazine-5,7-diamine] | – | 315 ng·h/mL | –
10 | N#Cc1ccc(CCNc2nc(N)n3nc(-c4ccco4)nc3n2)cc1 [Compound 45, 4-(2-(7-amino-2-(furan-2-yl)-[1,2,4]triazolo[1,5-a][1,3,5]triazine-5-ylamino)ethyl)-benzonitrile] | – | 718 ng·h/mL | –
11 | COCCN(CCOC)c1ccc(CCNc2nc(N)n3nc(-c4ccco4)nc3n2)cc1 [Compound 21, N5-(4-(bis(2-methoxyethyl)amino)phenethyl)-2-(furan-2-yl)-[1,2,4]triazolo[1,5-a][1,3,5]triazine-5,7-diamine] | 1.62 nM | 603 ng·h/mL | –
12 | COCCOCCOCCNc1ccc(CCNc2nc(N)n3nc(-c4ccco4)nc3n2)cc1 [Compound 29, 2-(furan-2-yl)-N5-(4-((2-(2-(2-methoxyethoxy)ethoxy)ethyl)amino)phenethyl)-[1,2,4]triazolo[1,5-a][1,3,5]triazine-5,7-diamine] | – | 160 ng·h/mL | –
13 | Nc1nc(NCCc2ccc(OCCN3CC[C@H](F)C3)cc2)nc2nc(-c3ccco3)nn12 [Compound 16, (S)-N5-(4-(2-(3-fluoropyrrolidin-1-yl)ethoxy)phenethyl)-2-(furan-2-yl)-[1,2,4]triazolo[1,5-a][1,3,5]triazine-5,7-diamine] | – | – | Cl—F—pred ([3]; PO, dose 10 (mg/kg)): 233 mL/min/kg; AUC(0-t) ([3]; IV, dose 1 (mg/kg)): 536 ng·h/mL; Cmax ([3]; IV, dose 1 (mg/kg)): 986 ng/mL; half-life ([3]; IV, dose 1 (mg/kg)): 0.61 h; clearance ([3]; IV, dose 1 (mg/kg)): 31.5 mL/min/kg; AUC(0-t) ([3]; PO, dose 10 (mg/kg)): 758 ng·h/mL; Cmax ([3]; PO, dose 10 (mg/kg)): 258 ng/mL; half-life ([3]; PO, dose 10 (mg/kg)): 4.78 h
14 | Nc1nc(NCCc2ccc(OCCN3CCC(F)(F)C3)cc2)nc2nc(-c3ccco3)nn12 [Compound 14, N5-(4-(2-(3,3-difluoropyrrolidin-1-yl)ethoxy)phenethyl)-2-(furan-2-yl)-[1,2,4]triazolo[1,5-a][1,3,5]triazine-5,7-diamine] | – | – | Cl—F—pred ([3]; PO, dose 10 (mg/kg)): 144 mL/min/kg; F ([3]; PO, dose 10 (mg/kg)): 17.90%; AUC(0-t) ([3]; IV, dose 1 (mg/kg)): 678 ng·h/mL; Cmax ([3]; IV, dose 1 (mg/kg)): 1680 ng/mL; half-life ([3]; IV, dose 1 (mg/kg)): 0.44 h; clearance ([3]; IV, dose 1 (mg/kg)): 24.7 mL/min/kg; AUC(0-t) ([3]; PO, dose 10 (mg/kg)): 1210 ng·h/mL; Cmax ([3]; PO, dose 10 (mg/kg)): 574 ng/mL; half-life ([3]; PO, dose 10 (mg/kg)): 3.05 h
15 | Nc1nc(NCCc2ccc(NC3COC3)cc2)nc2nc(-c3cccc(F)c3)nn12 [Compound 37, 2-(3-fluorophenyl)-N5-(4-(oxetan-3-ylamino)phenethyl)-[1,2,4]triazolo[1,5-a][1,3,5]triazine-5,7-diamine] | 7.07 nM | 1830 ng·h/mL | –
16 | COCCN(C)c1ccc(CCNc2nc(N)n3nc(-c4ccco4)nc3n2)cc1 [Compound 25, 2-(furan-2-yl)-N5-(4-((2-methoxyethyl)(methyl)amino)phenethyl)-[1,2,4]triazolo[1,5-a][1,3,5]triazine-5,7-diamine] | – | 142 ng·h/mL | –
17 | Nc1nc(NCCc2ccc(-c3ncccn3)cc2)nc2nc(-c3ccco3)nn12 [Compound 51, 2-(furan-2-yl)-N5-(4-(pyrimidin-2-yl)phenethyl)-[1,2,4]triazolo[1,5-a][1,3,5]triazine-5,7-diamine] | – | 420 ng·h/mL | –
18 | CCn1nnc(-c2ccc(CCNc3nc(N)n4nc(-c5ccco5)nc4n3)cc2)n1 [Compound 41, N5-(4-(2-ethyl-2H-tetrazol-5-yl)phenethyl)-2-(furan-2-yl)-[1,2,4]triazolo[1,5-a][1,3,5]triazine-5,7-diamine] | 7.87 nM | 1890 ng·h/mL | AUC(0-t) ([4]; mouse, in vivo, iv, 1 mg/kg): 1110 ng·h/mL; Cmax ([4]; mouse, in vivo, iv, 1 mg/kg): 2230 ng/mL; half-life ([4]; mouse, in vivo, iv, 1 mg/kg): 0.28 h; AUC(0-t) ([4]; mouse, in vivo, po, 5 mg/kg): 1800 ng·h/mL; Cmax ([4]; mouse, in vivo, po, 5 mg/kg): 1300 ng/mL; half-life ([4]; mouse, in vivo, po, 5 mg/kg): 1.85 h; Cl—F—pred ([4]; PO, 5 mg/kg): 48.7 mL/min/kg; F ([4]; PO, 5 mg/kg): 32.51%; clearance ([4]; mouse, in vivo, IV, 1 mg/kg, read-out: Cl—pred (converted)): 15.2 mL/min/kg
19 | CN(C)C(=O)c1ccc(CCNc2nc(N)n3nc(-c4ccco4)nc3n2)cc1 [Compound 38, 4-(2-(7-amino-2-(furan-2-yl)-[1,2,4]triazolo[1,5-a][1,3,5]triazine-5-ylamino)ethyl)-N,N-dimethylbenzamide] | 8.71 nM | – | –
20 | Cn1cnc(-c2ccc(CCNc3nc(N)n4nc(-c5ccco5)nc4n3)cc2)n1 [Compound 52, 2-(furan-2-yl)-N5-(4-(1-methyl-1H-1,2,4-triazol-3-yl)phenethyl)-[1,2,4]triazolo[1,5-a][1,3,5]triazine-5,7-diamine] | – | 388 ng·h/mL | –
21 | COCC(COC)Nc1ccc(CCNc2nc(N)n3nc(-c4ccco4)nc3n2)cc1 [Compound 35, N5-(4-(1,3-dimethoxypropane-2-ylamino)phenethyl)-2-(furan-2-yl)-[1,2,4]triazolo[1,5-a][1,3,5]triazine-5,7-diamine] | 4.88 nM | 1600 ng·h/mL | –
